Reference: ChEMBL document CHEMBL1133156, “Macrocarpins A-D, new cytotoxic nor-triterpenes from Maytenus macrocarpa” (Bioorg Med Chem Lett, 2000)
≈ marks a conversion by molar mass, not a printed value. Where “and” joins values, the source holds several entries; their conditions need not be identical. Identical values can stand only once.

Experiments:
A549 = assay: Compound was tested for cytotoxic activity against A-549 human lung carcinoma (ATCC:CCL-185); format: functional, cell-based
P388 [1] = assay: Compound was tested for cytotoxic activity against P-388D1 mouse lymphoma (ATCC: CCL-46); format: functional, cell-based
SK-MEL-28 = assay: Compound was tested for cytotoxic activity against SK-MEL-28 human melanoma (ATCC:HTB-72); format: functional, cell-based
Homo sapiens = species: Homo sapiens; assay: (§1) Compound was tested for cytotoxic activity against […] human colon carcinoma (ATCC:HTB-38); format: functional
HT-29 = assay: as §1; format: functional, cell-based
P388 [2] = assay: Compound was tested for cytotoxic activity against P-388D1 mouse lymphoma (ATCC:CCL-46); format: functional, cell-based

| Compound | IC50 (A549) | IC50 (P388 [1]) | IC50 (SK-MEL-28) | IC50 (Homo sapiens) | IC50 (HT-29) | IC50 (P388 [2]) |
| --- | --- | --- | --- | --- | --- | --- |
| COC(=O)[C@]1(C)CC[C@]2(C)CC[C@]3(C)C4CC(=O)c5c(cc(O)c(O)c5C=O)[C@]4(C)CC[C@@]3(C)C2C1 (stereo partly specified) | 0.5 µg/mL and 1 µM | 1000 nM | 0.5 µg/mL and 1 µM | 2000 nM | 1 µg/mL (≈ 2.01 µM) | 0.5 µg/mL (≈ 1.01 µM) |
| COC(=O)[C@]1(C)CC[C@]2(C)CC[C@]3(C)C4CC(=O)c5c(cc(OC(C)=O)c(OC(C)=O)c5C=O)[C@]4(C)CC[C@@]3(C)C2C1 (stereo partly specified) | 0.25 µg/mL and 400 nM | 400 nM | 0.25 µg/mL and 400 nM |  | 0.25 µg/mL and 400 nM | 0.25 µg/mL (≈ 0.431 µM) |
| C[C@@H]1CC2[C@]3(C)CCC4(C)C(=CC(=O)c5c4cc(O)c(O)c5C(=O)O)[C@@]3(C)CC[C@@]2(C)[C@H](O)C1=O (single isomer, unassigned) | 2.5 µg/mL and 5.2 µM | 5200 nM | 2.5 µg/mL and 5.2 µM |  | 2.5 µg/mL and 5.2 µM | 2.5 µg/mL (≈ 5.18 µM) |
| COc1c(O)cc2c(c1C(=O)O)C(=O)C=C1C2(C)CC[C@@]2(C)C3C[C@@H](C)C(=O)[C@@H](O)[C@]3(C)CC[C@]12C (single isomer, unassigned) | 10 µg/mL and 20.7 µM | 20700 nM | 10 µg/mL and 20.7 µM |  | 10 µg/mL and 20.7 µM | 10 µg/mL (≈ 20.1 µM) |
| CC1=C(O)C(=O)C=C2C1=CC(O)[C@H]1[C@@]2(C)CC[C@@]2(C)C3C[C@@H](C)C(=O)[C@@H](O)[C@]3(C)CC[C@]12C (single isomer, unassigned) | 1 µg/mL and 2 µM | 1000 nM | 1 µg/mL and 2 µM |  | 1 µg/mL and 2 µM | 0.5 µg/mL (≈ 1.1 µM) |
